This is an account of results in ChEMBL document CHEMBL3822379, “Development of novel 1,4-benzodiazepine-based Michael acceptors as antitrypanosomal agents” (Bioorg Med Chem Lett, 2016).

Structures are written as SMILES.

The target in data set [1] is Rhodesain (Trypanosoma brucei rhodesiense) (UniProt Q95PM0). Briefly: Inhibition of Trypanosoma brucei rhodesiense rhodesain expressed in Pichia pastoris X33 at 100 uM using Cbz-Phe-Arg-AMC as substrate measured over 10 mins by fluorescence microplate reader analysis.
Data set [2] relates to Trypanosoma brucei brucei. Briefly: Antitrypanosomal activity against trypomastigote form of Trypanosoma brucei brucei TC 221 after 24 hrs by alamar blue assay. Type of data set: functional, organism-based. Particulars: TC 221, 24 h. Background: Alamar Blue is a resazurin reagent that responds to reducing activity.
Data set [3] in a line: Cytotoxicity against mouse J774.1 cells incubated for 24 hrs by alamar blue assay. Format: cell-based. The conditions noted are these: read-out: TC50.

Rhodesain (Trypanosoma brucei rhodesiense), sequence (Q95PM0 1-450): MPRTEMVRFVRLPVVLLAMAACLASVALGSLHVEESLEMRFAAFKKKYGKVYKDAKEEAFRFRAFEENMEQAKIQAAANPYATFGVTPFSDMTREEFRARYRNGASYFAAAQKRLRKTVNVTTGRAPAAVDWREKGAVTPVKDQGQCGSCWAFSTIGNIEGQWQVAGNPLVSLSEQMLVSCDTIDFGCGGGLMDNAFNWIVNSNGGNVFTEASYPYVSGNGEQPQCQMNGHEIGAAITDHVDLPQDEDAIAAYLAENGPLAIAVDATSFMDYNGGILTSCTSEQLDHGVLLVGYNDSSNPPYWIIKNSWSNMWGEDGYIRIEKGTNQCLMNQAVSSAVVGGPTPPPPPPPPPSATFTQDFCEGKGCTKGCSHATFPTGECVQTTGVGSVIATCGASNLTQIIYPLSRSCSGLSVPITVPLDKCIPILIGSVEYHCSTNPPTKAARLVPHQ

By inhibition is commonly meant the change of the read-out against control, counted positive when it falls. For orientation: IC50 means the concentration that gives 50% inhibition. Higher therefore signals weaker potency. Compound `COC(=O)/C=C/CCCCN1C(=O)CN=C(c2ccccc2)c2ccccc21` yielded an inhibition in data set [1] of 27%. The IC50 in data set [2] worked out at 15.9 µM.

In turn, `CC(=O)/C=C/CCCN1C(=O)CN=C(c2ccccc2)c2ccccc21` had an inhibition in data set [1] of 27%. In data set [2], this compound displayed an IC50 of 4.6 µM. Further, the CC50 at 24 h in data set [3] is 31.8 µM.

With `CC(=O)/C=C/CCCCN1C(=O)CN=C(c2ccccc2)c2ccccc21`, in data set [1], the inhibition amounted to 27%. The same compound returned an IC50 in data set [2] of 13.1 µM.

In data set [1], `COC(=O)/C=C\CCN1C(=O)CN=C(c2ccccc2)c2ccccc21` came in with an inhibition of 27%. Further, the IC50 in data set [2] is greater than 40 µM.

In data set [1], `N#C/C=C\CCCN1C(=O)CN=C(c2ccccc2)c2ccccc21` came in with an inhibition of 27%. In data set [2], this compound yielded an IC50 greater than 40 µM.

In data set [1], `COC(=O)/C=C/CCCN1C(=O)CN=C(c2ccccc2)c2ccccc21` had an inhibition of 27%. In data set [2], this compound returned an IC50 of 23.5 µM.

In turn, `CC(=O)/C=C/CCN1C(=O)CN=C(c2ccccc2)c2ccccc21` displayed an inhibition in data set [1] of 27%. Further, in data set [2], 5.3 µM corresponded to half-maximal inhibition (IC50). Further, the CC50 at 24 h in data set [3] is greater than 100 µM.

As for `N#C/C=C\CCN1C(=O)CN=C(c2ccccc2)c2ccccc21`, in data set [1], the inhibition came to 27%. In data set [2], this compound registered an IC50 greater than 40 µM.

Turning to `COC(=O)/C=C/CNC(=O)CN1C(=O)[C@@H](COC(=O)NC23CC4CC(CC(C4)C2)C3)N=C(c2ccccc2)c2ccccc21`, half-maximal inhibition in data set [2] (IC50) required 4.8 µM.

Take `N#C/C=C\CCCCN1C(=O)CN=C(c2ccccc2)c2ccccc21`: in data set [1], the inhibition was 27%. The IC50 in data set [2] was 14.5 µM.
